Results on 22 compounds are retold here after patent US8501955B2, “Acetamide derivatives as glucokinase activators, their process and medicinal application” (Advinus Therapeutics Private Limited, priority 2007, dated 2013).

For this assay, the target named is T1, purified human recombinant GK (Homo sapiens, UniProt P35557).
T1 sequence (P35557 1-465): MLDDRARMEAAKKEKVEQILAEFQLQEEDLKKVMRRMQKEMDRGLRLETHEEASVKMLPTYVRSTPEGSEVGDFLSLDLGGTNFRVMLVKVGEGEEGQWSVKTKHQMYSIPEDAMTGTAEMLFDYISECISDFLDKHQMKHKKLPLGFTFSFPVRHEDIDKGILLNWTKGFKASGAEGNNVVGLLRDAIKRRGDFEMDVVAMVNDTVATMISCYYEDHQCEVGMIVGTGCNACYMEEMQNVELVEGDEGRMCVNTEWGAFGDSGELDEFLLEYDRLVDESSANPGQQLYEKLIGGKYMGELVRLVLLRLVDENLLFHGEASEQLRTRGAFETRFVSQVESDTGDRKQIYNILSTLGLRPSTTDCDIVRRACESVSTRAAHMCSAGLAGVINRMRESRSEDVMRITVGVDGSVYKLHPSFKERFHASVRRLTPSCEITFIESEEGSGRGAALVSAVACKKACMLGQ
The assay can be described thus: Glucokinase activity assay (coupled enzymatic GK/G6PD assay, NADH absorbance at 340 nm). It counts as biochemical. As to conditions: for EC50: EC50 of % change in S0.5 of glucokinase for glucose, sigmoidal fit, read-out: EC50 (with respect to % ΔS0.5); for Emax: Emax of % change in S0.5, vehicle S0.5 = 0%, 0 mM glucose = 100%, read-out: % Emax (with respect to % ΔS0.5). The source says: The glucokinase (GK) assay is a coupled enzymatic assay. GK catalyzes the first step of glycolysis, the conversion of glucose to glucose-6-phosphate (G6P) in the presence of ATP. G6P in turn is converted by glucose-6-phosphate dehydrogenase (G6PD) to 6-phosphogluconate, a process that requires NAD, resulting in NADH formation. Since the GK-catalyzed step is the rate-limiting step of this coupled enzymatic process, the rate of accumulation of 6-phosphogluconate and NADH is directly proportional to the rate of glucose phosphorylation by GK. The rate of the GK-catalyzed reaction can therefore be measured by monitoring the increase in NADH absorbance at 340 nm.
The assay is carried out according to the protocol outlined in Hariharan et al (1997), Diabetes 46: 11-16. Briefly, the test compounds are incubated in a reaction mix containing 25 mM HEPES (pH 7.2), 10 mM MgCl2, 100 mM KCl, 5 mM ATP, 2 mM DTT, 0.5 mM NAD, 1 U/ml Leuconostoc mesenteroides G6PD, 0.3 U/ml of purified human recombinant GK, and different concentrations of glucose. Enzymatic activity is calculated from the initial reaction velocity, measured from the change in NADH absorbance as a function of time.
Compounds described in formula (I), in concentration ranges from 1.0 nM to […] are tested in the purified human recombinant glucokinase assay described above.
A compound is considered to be a glucokinase activator if it, in its testable range of concentrations, yields a higher rate of glucose phosphorylation than in its absence at a particular glucose concentration, for example at 5 mM glucose.
Compounds of general formula (I) are tested in the in vitro GK enzymatic assay to monitor dose-dependent effect on glucokinase activation (in kinetic mode), as described above, at various glucose concentrations. The S0.5 of glucokinase for glucose at different concentration of each compound of interest is calculated from the following modified version of the Michaelis-Menten equation, V=Vmax[S]^n/(S0.5^n+[S]^n), where [S] is the glucose concentration and n is the Hill coefficient (taken as 1.7 to account for the sigmoidal kinetics of glucokinase with respect to glucose). The S0.5 is plotted against the log of the compound concentration. The change in the S0.5 of glucokinase (ΔS0.5) for glucose is calculated by subtracting the S0.5 at each concentration of the compound from the S0.5 in the vehicle control. The ΔS0.5 is then normalized to a percent scale, where the S0.5 in the vehicle control is set to 0% and 0 mM glucose is set to 100%. The % ΔS0.5 is then plotted against the log of the compound concentration. The EC50 and Emax of % change in S0.5 is obtained from the sigmoidal fit of the data. Detailed protocol has been described in our copending application no. WO 2008/104994 which is incorporated herein by reference. Characterization data of some representative glucokinase activators of the present disclosure, which are illustrative but not limiting, are given in table 1 below.

Turning to `O=C(O)c1ccc(Oc2cnc(NC(=O)C(O[C@@H]3CCOC3)c3ccc(S(=O)(=O)C4CC4)cc3)s2)cc1` (single isomer, unassigned) [Example H9A], the EC50 (in general, the concentration needed to bring the measured effect to its halfway point) is 22 nM.
On to `O=C(Nc1ncc(Oc2ccc(C(=O)N3CCC3)cc2)s1)C(Oc1ccc(F)cc1F)c1ccc(S(=O)(=O)C2CC2)cc1` (single isomer, unassigned; (+)) [Example H6A, (+)N-{5-[4-(Azetidine-1-carbonyl)-phenoxy]-thiazol-2-yl}-2-(4-cyclopropanesulfonyl-phenyl)-2-(2,4-difluoro-phenoxy)-acetamide], for which the EC50 amounted to 110 nM and the Emax (usually the maximal effect, on the per cent scale that the assay sets) was 93%.
Turning to `O=C(O)Cc1nc(NC(=O)C(Oc2ccc(F)cc2F)c2ccc(S(=O)(=O)N3CCCCC3)cc2)sc1Cl` (single isomer, unassigned; (-)) [Example H3A, (−) (5-Chloro-2-{2-(2,4-difluoro-phenoxy)-2-[4-(piperidine-1-sulfonyl)-phenyl]-acetylamino}-thiazol-4-yl)-acetic acid], the EC50 was 430 nM and the Emax is 90%.
In the case of `O=C(Nc1ncc(Cl)s1)C(Oc1ccc(F)cc1F)c1ccc(S(=O)(=O)C2CC2)cc1` (stereo not shown) [Example A2, N-(5-Chlorothiazol-2-yl)-2-(4-cyclopropanesulfonylphenyl)-2-(2,4-difluorophenoxy)acetamide], the EC50 was 130 nM and the Emax was 95%.
Turning to `O=C(Nc1ncc(F)s1)C(Oc1ccc(F)cc1F)c1ccc(S(=O)(=O)C2CCCC2)cc1` (stereo not shown) [Example A11, 2-(4-Cyclopentanesulfonylphenyl)-2-(2,4-difluorophenoxy)-N-(5-fluoro-thiazol-2-yl)acetamide], the EC50 amounted to 110 nM and the Emax amounted to 95%.
The corresponding values for `O=C(Nc1nccs1)C(Oc1ccc(Cl)cc1)c1ccc(S(=O)(=O)C2CCCC2)cc1` (stereo not shown) [Example A12, 2-(4-Chlorophenoxy)-2-(4-cyclopentanesulfonylphenyl)-N-thiazol-2-yl-acetamide] are 170 nM and 90%.
The corresponding values for `O=C(Nc1nncs1)C(Oc1ccc(F)cc1F)c1ccc(S(=O)(=O)C2CC2)cc1` (stereo not shown) [Example A16, 2-(4-Cyclopropanesulfonylphenyl)-2-(2,4-difluorophenoxy)-N-[1,3,4]thiadiazol-2-yl-acetamide] are 7100 nM and 90%.
Turning to `O=C(Nc1nncs1)C(Oc1ccc(F)cc1F)c1ccc(S(=O)(=O)C2CCCC2)cc1` (stereo not shown) [Example A27, 2-(4-Cyclopentanesulfonylphenyl)-2-(2,4-difluorophenoxy)-N-[1,3,4]thiadiazol-2-yl-acetamide], the EC50 was 1270 nM and the maximal response (Emax) turned out to be 90%.
Taken in the same sequence, the figures for `O=C(Nc1ncc(F)s1)C(Oc1ccc2[nH]ccc2c1)c1ccc(S(=O)(=O)C2CC2)cc1` (stereo not shown) [Example A28, 2-(4-Cyclopropanesulfonylphenyl)-N-(5-fluorothiazol-2-yl)-2-(1H-indol-5-yloxy)acetamide] were 640 nM and 90%.
With `CC(=O)Nc1cccc(OC(C(=O)Nc2ncc(F)s2)c2ccc(S(=O)(=O)C3CC3)cc2)c1` (stereo not shown) [Example A29, 2-(3-Acetylaminophenoxy)-2-(4-cyclopropanesulfonylphenyl)-N-(5-fluoro-thiazol-2-yl)acetamide], the EC50 worked out at 590 nM and the Emax is 90%.
Turning to `O=C(Nc1ncc(F)s1)C(Oc1ccc(F)cc1F)c1ccc(S(=O)(=O)C2CCCC2)c(Cl)c1` (stereo not shown) [Example A36, 2-(3-Chloro-4-cyclopentanesulfonylphenyl)-2-(2,4-difluorophenoxy)-N-(5-fluoro-thiazol-2-yl)acetamide], the EC50 was determined as 110 nM and the Emax amounted to 95%.
Taken in the same sequence, the figures for `O=C(Nc1cc[nH]n1)C(Oc1ccc(F)cc1F)c1ccc(S(=O)(=O)C2CCCC2)c(Cl)c1` (stereo not shown) [Example A37, 2-(3-Chloro-4-cyclopentanesulfonylphenyl)-2-(2,4-difluorophenoxy)-N-(1H-pyrazol-3-yl)acetamide] were 2000 nM and 90%.
For the compound `Cn1ccc(NC(=O)C(Oc2ccc(F)cc2F)c2ccc(S(=O)(=O)C3CCCC3)cc2)n1` (stereo not shown) [Example A38, 2-(4-Cyclopentanesulfonylphenyl)-2-(2,4-difluorophenoxy)-N-(1-methyl-1H-pyrazol-3-yl)acetamide], the EC50 amounted to 390 nM and the Emax worked out at 95%.
As to `O=C(Nc1ccc(Cl)cn1)C(Oc1ccc(Cl)cc1F)c1ccc(S(=O)(=O)C2CC2)cc1` (stereo not shown) [Example A41, 2-(4-Chloro-2-fluorophenoxy)-N-(5-chloropyridin-2-yl)-2-(4-cyclopropanesulfonylphenyl)-acetamide], the EC50 was determined as 460 nM and the Emax was found to be 90%.
For `O=C(Nc1ncc(F)s1)C(Oc1ccc(Cl)cc1F)c1ccc(S(=O)(=O)C2CC2)cc1` (stereo not shown) [Example A42, 2-(4-Chloro-2-fluorophenoxy)-2-(4-cyclopropanesulfonylphenyl)-N-(5-fluorothiazol-2-yl)acetamide], the EC50 was 120 nM and the Emax was determined as 95%.
Taken in the same sequence, the figures for `Cc1cnc(NC(=O)C(Oc2ccc(Cl)cc2F)c2ccc(S(=O)(=O)C3CC3)cc2)s1` (stereo not shown) [Example A43, 2-(4-Chloro-2-fluorophenoxy)-2-(4-cyclopropanesulfonylphenyl)-N-(5-methylthiazol-2-yl)acetamide] were 150 nM and 95%.
For the compound `O=C(Nc1cc[nH]n1)C(Oc1ccc(Cl)cc1F)c1ccc(S(=O)(=O)C2CC2)cc1` (stereo not shown) [Example A45, 2-(4-Chloro-2-fluorophenoxy)-2-(4-cyclopropanesulfonylphenyl)-N-(1H-pyrazol-3-yl)acetamide], the EC50 is 1300 nM and the Emax came out at 90%.
`Cn1ccc(NC(=O)C(Oc2ccc(Cl)cc2F)c2ccc(S(=O)(=O)C3CC3)cc2)n1` (stereo not shown) [Example A46, 2-(4-Chloro-2-fluorophenoxy)-2-(4-cyclopropanesulfonylphenyl)-N-(1-methyl-1H-pyrazol-3-yl)acetamide]: the EC50 was 1370 nM and the Emax was 90%.
Taken in the same sequence, the figures for `O=C(Nc1cnccn1)C(Oc1ccc(Cl)cc1F)c1ccc(S(=O)(=O)C2CC2)cc1` (stereo not shown) [Example A47, 2-(4-Chloro-2-fluorophenoxy)-2-(4-cyclopropanesulfonylphenyl)-N-pyrazin-2-yl-acetamide] were 1200 nM and 90%.
Taken in the same sequence, the figures for `CC(C)Oc1ccc2nc(NC(=O)C(OC3CCOCC3)c3ccc(S(=O)(=O)C4CC4)cc3)sc2n1` (stereo not shown) [Example A82, 2-(4-Cyclopropanesulfonyl-phenyl)-N-(5-isopropoxy-thiazolo[5,4-b]pyridin-2-yl)-2-(tetrahydro-pyran-4-yloxy)-acetamide] were 240 nM and 94%.
Taken in the same sequence, the figures for `O=C(Nc1ncc(F)s1)C(OC1CCOCC1)c1ccc(S(=O)(=O)C2CC2)cc1` (stereo not shown) [Example A114, 2-(4-Cyclopropanesulfonyl-phenyl)-N-(5-fluoro-thiazol-2-yl)-2-(tetrahydro-pyran-4-yloxy)-acetamide] were 150 nM and 92%.
Regarding `N#Cc1ccc(Oc2cnc(NC(=O)C(OC3CCOCC3)c3ccc(S(=O)(=O)C4CC4)cc3)s2)cc1` (stereo not shown) [Example A117, N-[5-(4-Cyano-phenoxy)-thiazol-2-yl]-2-(4-cyclopropanesulfonyl-phenyl)-2-(tetrahydro-pyran-4-yloxy)-acetamide], the EC50 was found to be 150 nM and the maximal effect (Emax) amounted to 92%.
